Measurements published in PMC12519282, “Reduction of Negative Charge in Mercaptoacetyl-Based Chelators Influences the Biodistribution of Prostate-Specific Membrane Antigen-Targeting Pseudopeptides Labeled with Technetium-99m” (ACS Pharmacology & Translational Science, 2025).
Where two headings read alike, the source gives them in different places. Marks after values point to notes of the source that are not given here.

What was measured:
[1] = type: in vitro ADME, murine; conditions: 1 h
Procedure: (§1) To evaluate the label’s stability, 10 μL (0.25 μg) of radiolabeled conjugates was incubated with 300× molar excess of cysteine or with PBS for 1 h at room temperature. The test was run in triplicate. The release of free technetium-99m was controlled by using iTLC and radio-HPLC analysis. The stability in serum was analyzed by mixing the radioconjugates (0.25 μg in 10 μL) with murine serum or PBS (40 μL) as a control. The samples were incubated for 1 h at 37 °C and analyzed by iTLC. The experiment was performed in triplicate. The octanol–water distribution coefficient (Log D) was determined experimentally by the addition of 100 pmol of the radiolabeled tracer to an Eppendorf tube containing PBS (500 μL) and n-octanol (500 μL), pH ∼ 7.4. The solution was vortexed and centrifuged, and aliquots (50 μL) from each phase were collected and measured using a gamma counter. The experiment was performed in triplicate.

physchem = type: physicochemical; conditions: pH 7.4
Procedure: as §1

PC3-pip cells [2] = test: in vitro binding specificity test; type: cell-based; conditions: 1 h, 37 °C
Procedure: For the in vitro binding specificity test, approximately 8 × 10^5 PC3-pip cells per well were seeded 24 h before the experiment. […] Technetium-99m-labeled tracers were added to each well to reach a concentration of 2 nM. After 1 h of incubation at 37 °C, cells were washed with PBS solution, detached, and collected. Cell-associated activity was measured using a gamma counter and presented as the percentage of added activity.

PSMA = target: T1, PSMA (Homo sapiens, UniProt Q04609); test: binding kinetics in real time on living PC3-pip cells (LigandTracer Yellow)
T1 construct: expressed in transfected cells; host or cells: PC3-pip (PSMA-transfected PC-3 prostate carcinoma cells), from Prof; Martin G. Pomper, Johns Hopkins University
T1 sequence (Q04609 whole entry): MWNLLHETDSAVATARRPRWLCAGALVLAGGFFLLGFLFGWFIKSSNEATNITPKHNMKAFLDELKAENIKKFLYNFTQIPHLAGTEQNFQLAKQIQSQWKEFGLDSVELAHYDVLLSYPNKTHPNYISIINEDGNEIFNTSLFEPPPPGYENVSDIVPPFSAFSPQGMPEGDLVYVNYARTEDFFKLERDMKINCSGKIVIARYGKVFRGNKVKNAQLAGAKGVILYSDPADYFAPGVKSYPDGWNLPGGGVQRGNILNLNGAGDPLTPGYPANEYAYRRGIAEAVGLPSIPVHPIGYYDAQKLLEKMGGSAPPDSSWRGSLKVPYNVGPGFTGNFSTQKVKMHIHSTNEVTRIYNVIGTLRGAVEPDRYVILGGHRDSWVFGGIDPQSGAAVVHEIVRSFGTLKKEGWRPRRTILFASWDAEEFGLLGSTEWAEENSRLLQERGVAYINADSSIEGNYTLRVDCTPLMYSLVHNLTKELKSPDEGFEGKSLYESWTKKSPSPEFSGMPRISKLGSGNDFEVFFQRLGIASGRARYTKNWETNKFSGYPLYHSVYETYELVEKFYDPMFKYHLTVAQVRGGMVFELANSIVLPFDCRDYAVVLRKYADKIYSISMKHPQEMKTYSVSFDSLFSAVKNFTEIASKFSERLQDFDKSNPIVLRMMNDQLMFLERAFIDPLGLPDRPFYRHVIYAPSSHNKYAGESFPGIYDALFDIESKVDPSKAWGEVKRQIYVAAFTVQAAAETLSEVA
Procedure: The binding kinetics of technetium-99m-labeled BQ0413, BQ0500, and BQ0501 were determined in PC3-pip cells in real-time using LigandTracer Yellow (Ridgeview Instruments AB, Uppsala, Sweden). The activity binding was recorded with 5 nM radiolabeled tracers for 150 min. After the binding kinetics were measured, the medium containing the labeled tracer was replaced with fresh medium, and the dissociation was monitored over 7 h. The association rate (k a) and the dissociation rate (k d) were computed using a 1:2 kinetic binding model in TraceDrawer software (Ridgeview Instruments AB, Uppsala, Sweden), and the equilibrium dissociation constant K D was calculated.

PC3-pip cells [3] = test: cellular processing (membrane-bound / internalized activity); type: cell-based; conditions: 2 nM, continuous incubation, after 8 h
Procedure: To evaluate cellular processing of technetium-99m-labeled BQ0500 and BQ0501, PC3-pip cells were incubated with the radiolabeled tracer (2 nM), and at 1, 2, 4, and 8 h of continuous incubation, the membrane-bound and internalized fractions were collected as previously described using 4 M urea solution in 0.2 M glycine buffer (pH 2) to collect membrane-bound fraction and 1 N solution of NaOH to collect the internalized fraction. The activity in the samples was measured, and the percentage of membrane-bound and internalized activity was calculated. The experiments were performed in triplicate.

PC3-pip xenografts = test: biodistribution and tumor targeting in PC3-pip tumor-bearing mice; type: in vivo
From the text: The injected masses for the in vivo experiments were chosen based on the findings for [^99mTc]-Tc-BQ0413: to study the general biodistribution of radiolabeled tracers in normal mice (NMRI), 40 pmol of tracer was used to avoid blocking of PSMA-mediated uptake in kidneys and salivary glands, to study tumor targeting, 5 nmol of tracer was used to decrease uptake in PSMA-expressing organs.
PSMA-expressing PCa xenografts were implanted in BALB/c nu/nu mice by subcutaneous injection of the PC3-pip cell suspension in PBS (10^7 cells/animal in 100 μL). The average animal weight in the experiment was 18 ± 2 g. The average tumor weight was 0.4 ± 0.2 g. For in vivo specificity control, 10^7 cells/animal PSMA-negative PC-3 cells were implanted. The average animal weight was 18 ± 1 g. The average tumor weight was 0.1 ± 0.1 g. Four mice per data point were used in the in vivo experiments.
For tumor-bearing mice, each mouse was intravenously injected with 5 nmol of [^99mTc]-Tc-BQ0413, [^99mTc]-Tc-BQ0500, and [^99mTc]-Tc-BQ0501 (60 kBq; the mass of the injected compound was adjusted with an unlabeled tracer). The mice were euthanized after lethal intraperitoneal injection of ketamine/xylazine, followed by exsanguination 1 and 3 h pi, similarly to the procedure described above.

[4] = PC3-pip tumor-bearing mice, 5 nmol/mouse iv, 1 h pi
[5] = PC3-pip tumor-bearing mice, 5 nmol/mouse iv, 3 h pi
[6] = PC3-pip tumor-bearing mice, 5 nmol/mouse iv, 3 h pi, listed as [99mTc]Tc-BQ0500

With `CC(=O)NC(CCCCNC(=O)CNC(=O)C(CCC(=O)O)NC(=O)C(CO)NC(=O)C(CCC(=O)O)NC(=O)CS)C(=O)NCCCCCCCC(=O)NC(Cc1ccc(O)cc1)C(=O)NC(Cc1ccc2ccccc2c1)C(=O)NCCCCC(NC(=O)NC(CCC(=O)O)C(=O)O)C(=O)O` (stereo not shown) [[^99mTc]Tc-BQ0500, metal not drawn] the “intact tracer in PBS” value ([1]; PBS control, 37 °C, n = 3) was 99.0 ± 0.5%, the “intact tracer in murine serum” value ([1]; mouse, 5 µg/mL) was 99.7 ± 0.3% and the “Log D (octanol–water distribution coefficient)” value (physchem) was −2.5 ± 0.1. For the same molecule, the “activity uptake by PC3-pip cells” value (PC3-pip cells [2]; 2 nM tracer) was 71 ± 4 % of added activity, the “activity uptake by PC3-pip cells after presaturation with PSMA-11” value (PC3-pip cells [2]; 250-fold excess of nonlabeled PSMA-11, 2 nM tracer) was “significantly (p < 0.0001) decreased” and the “B max1 (binding maximum)” value (PSMA; 5 nM tracer, 1:2 model (1:1 for BQ0413)) was 881 CPS. The “B max2 (binding maximum)” value (PSMA; 5 nM tracer, 1:2 model, second interaction) was 40 CPS, the Kd (PSMA; 5 nM tracer, 1:2 model, second interaction, read-out: K D2) was 0.052 nM and the “affinity compromised in comparison with [99mTc]Tc-BQ0413” value (PSMA; PC3-pip cells) was 3–5 fold. The Kd (PSMA; as rounded in comparison table, read-out: K D1) was 0.3 nM, the Kd (PSMA; as rounded in comparison table, read-out: K D2) was 0.05 nM and the “maximum of internalized activity” value (PC3-pip cells [3]) was 42–43 % of cell-associated activity. The “activity uptake in intestines with content, higher compared to [99mTc]Tc-BQ0413” value (PC3-pip xenografts; PC3-pip tumor-bearing mice, 5 nmol) was 5.3 fold, the activity in carcass (PC3-pip xenografts; [4]) was 7 ± 1 ^b %IA/sample and the “activity in intestines with content” value (PC3-pip xenografts; [4]) was 3.9 ± 0.4 ^b, ^c, ^d %IA/sample. For the same molecule, the “activity uptake in blood” value (PC3-pip xenografts; [4]) was 1.1 ± 0.2 ^b %IA/g, the “activity uptake in bone” value (PC3-pip xenografts; [4]) was 0.5 ± 0.1 ^b, ^d %IA/g and the “activity uptake in kidney” value (PC3-pip xenografts; [4]) was 51 ± 3 ^b ^c %IA/g. The “activity uptake in liver” value (PC3-pip xenografts; [4]) was 0.9 ± 0.2 ^b %IA/g, the “activity uptake in lung” value (PC3-pip xenografts; [4]) was 1.3 ± 0.2 ^b %IA/g and the “activity uptake in muscle” value (PC3-pip xenografts; [4]) was 0.3 ± 0.1 ^b %IA/g. The “activity uptake in pancreas” value (PC3-pip xenografts; [4]) was 0.4 ± 0.1 ^b %IA/g, the “activity uptake in salivary gland” value (PC3-pip xenografts; [4]) was 0.7 ± 0.1 ^b ^, ^d %IA/g and the “activity uptake in small intestines” value (PC3-pip xenografts; [4]) was 0.6 ± 0.2 ^c %IA/g. For the same molecule, the “activity uptake in spleen” value (PC3-pip xenografts; [4]) was 2.5 ± 0.2 ^b %IA/g, the “activity uptake in stomach” value (PC3-pip xenografts; [4]) was 0.47 ± 0.02 ^d %IA/g and the “activity uptake in tumor” value (PC3-pip xenografts; [4]) was 29 ± 3 %IA/g. For the same molecule, the tumor-to-blood ratio (PC3-pip xenografts; [4]) was 28 ± 6 ^b, the tumor-to-bone ratio (PC3-pip xenografts; [4]) was 65 ± 15 ^b ^, ^d and the tumor-to-kidney ratio (PC3-pip xenografts; [4]) was 0.6 ± 0.1 ^b ^, ^c. The tumor-to-liver ratio (PC3-pip xenografts; [4]) was 32 ± 7 ^b, the tumor-to-lung ratio (PC3-pip xenografts; [4]) was 23 ± 4 ^b and the tumor-to-muscle ratio (PC3-pip xenografts; [4]) was 101 ± 28 ^b. The tumor-to-pancreas ratio (PC3-pip xenografts; [4]) was 69 ± 13, the tumor-to-salivary gland ratio (PC3-pip xenografts; [4]) was 42 ± 8 ^b ^, ^d and the tumor-to-small intestines ratio (PC3-pip xenografts; [4]) was 51 ± 20. The tumor-to-spleen ratio (PC3-pip xenografts; [4]) was 12 ± 2 ^b, the tumor-to-stomach ratio (PC3-pip xenografts; [4]) was 61 ± 7 ^d and the activity in carcass (PC3-pip xenografts; [5]) was 4 ± 1 ^d %IA/sample. For the same molecule, the “activity in intestines with content” value (PC3-pip xenografts; [5]) was 5.4 ± 0.3 ^c, ^d %IA/sample, the “activity uptake in blood” value (PC3-pip xenografts; [5]) was 0.3 ± 0.1 ^c ^, ^d %IA/g and the “activity uptake in bone” value (PC3-pip xenografts; [5]) was 0.10 ± 0.02 %IA/g. For the same molecule, the “activity uptake in kidney” value (PC3-pip xenografts; [5]) was 33 ± 3 ^c, ^d %IA/g, the “activity uptake in liver” value (PC3-pip xenografts; [5]) was 0.4 ± 0.1 ^c %IA/g and the “activity uptake in lung” value (PC3-pip xenografts; [5]) was 0.4 ± 0.1 ^c %IA/g. The “activity uptake in muscle” value (PC3-pip xenografts; [5]) was 0.10 ± 0.03 %IA/g, the “activity uptake in pancreas” value (PC3-pip xenografts; [5]) was 0.3 ± 0.2 %IA/g and the “activity uptake in salivary gland” value (PC3-pip xenografts; [5]) was 0.2 ± 0.1 ^d %IA/g. For the same molecule, the “activity uptake in small intestines” value (PC3-pip xenografts; [5]) was 0.4 ± 0.2 %IA/g, the “activity uptake in spleen” value (PC3-pip xenografts; [5]) was 1.4 ± 0.3 ^c %IA/g and the “activity uptake in stomach” value (PC3-pip xenografts; [5]) was 1.6 ± 1.2 ^c %IA/g. For the same molecule, the tumor-to-bone ratio (PC3-pip xenografts; [5]) was 341 ± 100 ^d, the tumor-to-kidney ratio (PC3-pip xenografts; [5]) was 1.0 ± 0.2 ^c and the tumor-to-liver ratio (PC3-pip xenografts; [5]) was 79 ± 22 ^c. For the same molecule, the tumor-to-lung ratio (PC3-pip xenografts; [5]) was 71 ± 15 ^c, the tumor-to-muscle ratio (PC3-pip xenografts; [5]) was 332 ± 99 and the tumor-to-pancreas ratio (PC3-pip xenografts; [5]) was 140 ± 82 ^c. For the same molecule, the tumor-to-salivary gland ratio (PC3-pip xenografts; [5]) was 141 ± 42, the tumor-to-small intestines ratio (PC3-pip xenografts; [5]) was 94 ± 38 ^c and the tumor-to-spleen ratio (PC3-pip xenografts; [5]) was 22 ± 5 ^c. The tumor-to-stomach ratio (PC3-pip xenografts; [5]) was 38 ± 39 ^c, the activity in carcass (PC3-pip xenografts; [6]) was 4±1 %IA/sample and the “activity in intestines with content” value (PC3-pip xenografts; [6]) was 5.4±0.3 %IA/sample. The “activity uptake in blood” value (PC3-pip xenografts; [6]) was 0.3±0.1 %IA/g, the “activity uptake in bone” value (PC3-pip xenografts; [6]) was 0.10±0.02 %IA/g and the “activity uptake in kidney” value (PC3-pip xenografts; [6]) was 33±3 %IA/g. The “activity uptake in liver” value (PC3-pip xenografts; [6]) was 0.4±0.1 %IA/g, the “activity uptake in lung” value (PC3-pip xenografts; [6]) was 0.4±0.1 %IA/g and the “activity uptake in muscle” value (PC3-pip xenografts; [6]) was 0.10±0.03 %IA/g. For the same molecule, the “activity uptake in pancreas” value (PC3-pip xenografts; [6]) was 0.3±0.2 %IA/g, the “activity uptake in salivary gland” value (PC3-pip xenografts; [6]) was 0.2±0.1 %IA/g and the “activity uptake in small intestines” value (PC3-pip xenografts; [6]) was 0.4±0.2 %IA/g. The “activity uptake in spleen” value (PC3-pip xenografts; [6]) was 1.4±0.3 %IA/g, the “activity uptake in stomach” value (PC3-pip xenografts; [6]) was 1.6±1.2 %IA/g and the “activity uptake in tumor” value (PC3-pip xenografts; [6]) was 31±4 %IA/g. For the same molecule, the excretion pathway (PC3-pip xenografts; PC3-pip xenografts) was “predominantly renal”.
